# Laboratory results as given in the NIST ThermoML archive (doi:10.1016/j.fluid.2006.02.022).
# “And” between values parts separate entries of the source, which are not always exact repeats. Equal entries are not always repeated. Numbers after ± are expanded uncertainties.
# Test: activity coefficient (dimensionless); of the first substance listed, at infinite dilution; xn = mol fraction of the nth substance listed
# Conditions: 101 kPa, Liquid, Chromatography, x1 = 0
activity coefficient (318.15 K),activity coefficient (333.15 K),activity coefficient (288.15 K),activity coefficient (298.15 K),activity coefficient (308.15 K),Structure (SMILES)
47100 and 126000,35500 and 76900,–,–,–,"COC(C)(C)CC(C)(C)C [methyl 1,1,3,3-tetramethylbutyl ether] + O"
873 ± 82,–,325 ± 22,514 ± 35,659 ± 46,CCOC(C)(C)C [2-ethoxy-2-methylpropane] + O
3320 ± 350,–,1350 ± 100,1990 ± 140,2530 ± 190,"CCOC(C)(C)CC [1,1-dimethylpropyl ethyl ether] + O"
126000 ± 27000,76900 ± 29000,111000 ± 9700,143000 ± 16000,149000 ± 23000,"CCOC(C)(C)CC(C)(C)C [ethyl 1,1,3,3-tetramethylbutyl ether] + O"
1130 ± 130,–,1120 ± 90,1140 ± 100,1190 ± 120,CC(C)S [2-propanethiol] + O
5340 ± 620,4140 ± 620,6030 ± 490,6040 ± 530,5830 ± 570,CCCCS [1-butanethiol] + O
1070 ± 87,–,390 ± 39,529 ± 44,725 ± 55,CCC(C)(C)OC [2-methoxy-2-methylbutane] + O
234 ± 18,–,127 ± 13,139 ± 11,180 ± 14,COC(C)(C)C [2-methoxy-2-methylpropane] + O
1290 ± 110,1100 ± 100,1260 ± 100,1270 ± 96,1310 ± 100,c1ccsc1 [thiophene] + O

Structure (SMILES),activity coefficient (318.15 K),activity coefficient (333.15 K),activity coefficient (288.15 K),activity coefficient (298.15 K),activity coefficient (308.15 K)
CCCS [1-propanethiol] + O,1450 ± 150,1310 ± 160,1420 ± 110,1500 ± 120,1460 ± 130
Cc1ccccc1 [toluene] + O,8290 ± 880,–,8980 ± 950,8950 ± 950,8780 ± 930
